Measured values published in publication PMC9855884, “Glycosylated Lipopeptides—Synthesis and Evaluation of Antimicrobial Activity and Cytotoxicity” (Biomolecules, 2023).
Values after ≈ are worked out from the molar mass of the structure shown. Values joined by “and” are separate entries in the source; they are usually repeats but may differ in a detail not shown here. Equal entries are not always repeated. Marks after values point to notes of the source that are not given here. Where a SMILES comes first, the peptide text is derived from it. The star is where a group is joined. Myristoyl = CCCCCCCCCCCCCC(=O)*

What was measured:
S. aureus ATCC 33591 = details: planktonic cells, analyses performed in the previous study; cited from earlier work
Excerpt: Table 2 Antimicrobial activity (MIC [µg/mL]) of lipopeptides 1–18 against planktonic cells. | column: S. aureus ATCC 33591

MTT assay, cytotoxicity = type: cell-based, human; details: HaCaT, 24 h incubation at 37 °C, 0.5–500 μg/mL, six replicates per concentration, repeated at least twice
Experimental: To evaluate the cytotoxicity of the test peptides (IC50), the classic MTT assay on 96-well plates was performed for human keratinocytes (HaCaT) which were acquired from the ATCC. The assay was based on colorimetric determination of the cell metabolic activity where the color intensity reflected the number of live cells that could be measured spectrophotometrically. The cell line was cultured in a Dulbecco’s modified Eagle Medium (Invitrogen) supplemented with 10% fetal bovine serum (v/v), 100 units/mL of penicillin, 100 μg/mL of streptomycin, and 2 mM L-glutamine and was kept at 37 °C in a humidified 5% CO2 incubator. Briefly, a day after plating of 500 cells per well, a series of concentrations (0.5–500 μg/mL) of the test compounds were applied. DMSO was added to the control cells at a final concentration of 1.0% (v/v), which was related to the maximum concentration of the solvent compounds used in the experiment. After 24 h of incubation at 37 °C (humidified 5% CO2 incubator) with the peptides, a medium containing 1 mg/mL of MTT was added to the wells up to a final concentration of 0.5 mg/mL. Subsequently, the plates were incubated at 37 °C for 4 h. Then, the medium was aspirated, and the formazan product was solubilized with DMSO. The background absorbance at 630 nm was subtracted from that at 570 nm for each well (Epoch, BioTek Instruments, Winooski, VT, USA). Six replicates were conducted for each concentration. All experiments were repeated at least twice and the resulting IC50 values were calculated with a GraFit 7 software (v. 7.0, Erithacus, Berkley, CA, USA).
The selectivity indexes were calculated for all the strains as IC50/MIC. According to IC50, in most cases, glycosylation caused only a slight decrease in toxicity. However, in contrast with SI calculated for HC50, the differences between USCLs and gUSCLs are not so distinct. […] Moreover, toxicity of USCLs and gUSCLs is high and exceeds their antimicrobial activity. The lipopetides were not selective against Gram-negative strains (K. pneumoniae, A. baumannii, P. aeruginosa, K. aerogenes) over human cells. A few USCLs were selective (SI > 1) against E. faecium and S. aureus with SI up to 1.87; and some gUSCLs were selective against E. faecium but not against S. aureus, with SI between 0.63 and 1.73. […] In this case, SI of gUSCLs was noticeably […] than that of corresponding parent USCLs (2.07, 1.99, 2.67 vs. 2.53, 2.36, 3.46, respectively). Selectivity indexes were plotted against adjusted retention time (Figures S15–S21). A moderate linear correlation was found in USCLs and K. pneumoniae, C. glabrata, and gUSCLs and K. pneumoniae, K. aerogenes (R^2 between 0.6064 and 0.6481). A relatively high linear correlation was obtained for USCLs and K. aerogenes (R^2 of 0.8214) and also for gUSCLs and C. glabrata (R^2 of 0.9223).

[1] = test system: A. baumannii ATCC BAA 1605; details: planktonic cells, analyses performed in the previous study; cited from earlier work
Excerpt: Table 2 Antimicrobial activity (MIC [µg/mL]) of lipopeptides 1–18 against planktonic cells. | column: A. baumannii ATCC BAA 1605

E. faecium ATCC 700221 = details: planktonic cells, analyses performed in the previous study; cited from earlier work
Excerpt: However, enhanced activity with elongation of the hydrocarbon chain length in fatty acid residue and the change of serine position to 2 or 3 could be seen. […] Generally, the lo ...

K. aerogenes ATCC 13048 = details: planktonic cells, analyses performed in the previous study; cited from earlier work
Excerpt: Table 2 Antimicrobial activity (MIC [µg/mL]) of lipopeptides 1–18 against planktonic cells. | column: K. aerogenes ATCC 13048

C. glabrata ATCC 15126 = type: cell-based, Candida glabrata; details: ATCC 15126, 24 h
Experimental: The Acinetobacter baumannii ATCC BAA-1605, Enterococcus faecium ATCC 700221, Klebsiella aerogenes ATCC 13048, Klebsiella pneumoniae ATCC 700603, Pseudomonas aeruginosa ATCC 9027, Staphylococcus aureus ATCC 33591, Candida glabrata ATCC 15126, strains were acquired from the American Type Culture Collection (ATCC). All the strains were stored at −80 °C in Roti-Store cryo vials and were transferred into fresh Mueller–Hinton broth (MHB, Becton Dickinson, Warsaw, Poland) for bacteria or RPMI-1640 (Sigma-Aldrich, Steinheim, Germany) for fungi before the tests and incubated for 24 h at 37 °C. Then, the cultures were seeded on the Mueller–Hinton agar (BioMaxima, Lublin, Poland) or Sabouraud dextrose agar (SDA, BioMaxima, Lublin, Poland) plates, respectively, and incubated as just mentioned. These agar cultures were used for further microbiological assays. Cell densities for all assays were adjusted spectrophotometrically (Multiskan GO Microplate Spectrophotometer, Thermo Fisher Scientific, Vantaa, Finland) at 600 and 530 nm for bacteria and fungi, respectively.
The MICs were determined using a broth microdilution method according to the Clinical and Laboratory Standard Institute guidelines. For this purpose, initial inoculums of bacteria (5 × 10^5 CFU/mL) in MHB and yeasts (2 × 10^3 CFU/mL) in RPMI-1640 with 2% D-glucose were exposed to the ranging concentration of lipopeptides (1–512 μg/mL) and incubated at 37 °C for 18 h and 24 h, respectively. The experiments were conducted on 96-well microtiter polystyrene plates (Kartell, Italy). The growth was assessed visually after incubation and the MIC was assumed as the lowest peptide concentration at which a noticeable growth of microorganisms was inhibited. All experiments were conducted in triplicate.

[2] = test system: human red blood cells (RBCs); details: cited from earlier work
[3] = Determination of peptide hydrophobicity with RP-HPLC (adjusted retention time); type: physicochemical; details: RP-HPLC as measure of hydrophobicity; Waters X-Bridge Shield RP-18 3.0 × 100 mm, 3.5 μm; linear 20–80% acetonitrile in water over 30 min, 0.1% TFA; 0.5 mL/min; 25.0 °C; peptide 1 g/L in water (0.1% TFA); UV 214 nm; triplicate
Experimental: To determine peptide hydrophobicity, a Waters Alliance e2695 system with a Waters 2998 PDA Detector was used. All analyses were carried out on a Waters X-Bridge Shield RP-18 column (3.0 × 100 mm, 3.5 μm particle size, 130 Å pore size). The peptides were dissolved in water (0.1% TFA, v/v) up to a concentration of 1 g/L. UV detection at 214 nm was used, and samples (10 μL) were eluted with a linear 20–80% acetonitrile gradient in deionized water over 30 min at 25.0 ± 0.1 °C. The mobile phase flow rate was 0.5 mL/min. Both eluents contained 0.1% (v/v) of TFA. Each peptide sample was analyzed in triplicate. Maximum standard deviation and coefficient of variation were 0.046 and 0.23%, respectively.
After synthesis and purification, all the products were analyzed with MS and HPLC to confirm purity and identity of the compounds. […] The chromatographic analyses were performed with RP-HPLC; retention time refers to hydrophobicity of the lipopeptide.

[4] = test system: K. pneumoniae ATCC 700603; details: planktonic cells, analyses performed in the previous study; cited from earlier work
Excerpt: Table 2 Antimicrobial activity (MIC [µg/mL]) of lipopeptides 1–18 against planktonic cells. | column: K. pneumoniae ATCC 700603

P. aeruginosa ATCC 9027 = details: planktonic cells, analyses performed in the previous study; cited from earlier work
Excerpt: Table 2 Antimicrobial activity (MIC [µg/mL]) of lipopeptides 1–18 against planktonic cells. | column: P. aeruginosa ATCC 9027

P. aeruginosa biofilm = test system: P. aeruginosa biofilm; parameters: method as in PMID 33804887; details: P. aeruginosa biofilm (Gram-negative strains); previous studies; cited from earlier work
A. baumannii biofilm = test system: A. baumannii biofilm; parameters: method as in PMID 33804887; details: A. baumannii biofilm (Gram-negative strains); previous studies; cited from earlier work
S. aureus biofilm = test system: S. aureus biofilm; parameters: method as in PMID 33804887; details: S. aureus ATCC 33591 biofilm; previous studies; cited from earlier work
K. pneumoniae biofilm = test system: K. pneumoniae biofilm; parameters: method as in PMID 33804887; details: K. pneumoniae biofilm (Gram-negative strains); previous studies; cited from earlier work

Row | Molecule | MIC (S. aureus ATCC 33591) | IC50 (MTT assay, cytotoxicity) | MIC [1] | MIC (E. faecium ATCC 700221) | MIC (K. aerogenes ATCC 13048) | MIC (C. glabrata ATCC 15126) | HC50 (hemolytic activity) [2] | Adjusted Retention Time [3] | MIC [4] | MIC (P. aeruginosa ATCC 9027) | MBEC (P. aeruginosa biofilm) | MBEC (A. baumannii biofilm) | MBEC (S. aureus biofilm) | MBEC (K. pneumoniae biofilm)
1 | CCCCCCCCCCCCCC(=O)N[C@@H](CO)C(=O)N[C@@H](CCCNC(=N)N)C(=O)N[C@@H](CCCNC(=N)N)C(N)=O [Peptide 1, C14-SRR-NH2] (Myristoyl-Ser-Arg-Arg-NH2) | 16 * µg/mL | 1.41 ± 0.29 µg/mL (≈ 2.25 µM) | 32 * µg/mL | 16 µg/mL and 16 * µg/mL | 128 * µg/mL | 32 µg/mL (≈ 51 µM) | 41.54 ± 1.29 µg/mL | 16.55 min | 128 * µg/mL | 32 * µg/mL | – | – | – | –
2 | C12-RR-NH2 [Peptide C12-RR-NH2] | – | – | – | – | – | – | – | – | – | – | 512 µg/mL | 512 µg/mL | 64 µg/mL | 512 µg/mL
